Source: patent US20150087673A1, “METHODS FOR USING AND BIOMARKERS FOR AMPK-ACTIVATING COMPOUNDS” (RIGEL PHARMACEUTICALS, INC., priority 2013, published 2015)

test system: AMPK; experiment: AMPK activation assay (enzyme-linked immunosorbent assay); type: cell-based
Method in brief: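 Activation by each compound is measured using a conventional commercial immunoassay kit.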

Row | EC50 [nM] | SMILES
1 | > 10000 | CS(=O)(=O)c1ccc(CN2CCC(NC(=O)c3ccc(C(=O)N4CCC(Oc5ccc(C#N)cc5)CC4)nc3)CC2)cc1 [Compound 214, 6-(4-(4-cyanophenoxy)piperidine-1-carbonyl)-N-(1-(4-(methylsulfonyl)benzyl)piperidin-4-yl)nicotinamide]
2 | < 500 | N#Cc1ccc(OC2CCN(C(=O)c3ccc(C(=O)NCCOc4ccc(F)cc4)nc3)CC2)cc1 [Compound 306, 5-(4-(4-cyanophenoxy)piperidine-1-carbonyl)-N-(2-(4-fluorophenoxy)ethyl)picolinamide]
3 | < 500 | N#Cc1ccc(CN2CCC(C(=O)Nc3ccc(C(=O)N4CCC(C(=O)c5ccc(F)cc5)CC4)cn3)CC2)cc1 [Compound 175, 1-(4-cyanobenzyl)-N-(5-(4-(4-fluorobenzoyl)piperidine-1-carbonyl)pyridin-2-yl)piperidine-4-carboxamide]
4 | < 500 | COc1ccc(C(=O)C2CCN(C(=O)c3ccc(C(=O)N[C@@H]4CCN(Cc5ccc(C#N)cc5)C[C@H]4F)cn3)CC2)cc1 (relative stereo) [Compound 349, N-((trans)-1-(4-cyanobenzyl)-3-fluoropiperidin-4-yl)-6-(4-(4-methoxybenzoyl)piperidine-1-carbonyl)nicotinamide]
5 | 1000 to 5000 | CS(=O)(=O)c1ccc(C(=O)C2CCN(C(=O)c3ccc(C(=O)NC4CCN(Cc5ccc(C#N)cc5)CC4)cn3)CC2)cc1 [Compound 221, N-(1-(4-cyanobenzyl)piperidin-4-yl)-6-(4-(4-(methylsulfonyl)benzoyl)piperidine-1-carbonyl)nicotinamide]
6 | 500 to 1000 | N#Cc1ccc(CN2CCC(NC(=O)c3ccc(Nc4ccc(Cc5ccccc5)cc4)cn3)CC2)cc1 [Compound 108, 5-(4-benzylphenylamino)-N-(1-(4-cyanobenzyl)piperidin-4-yl)picolinamide]
7 | 500 to 1000 | N#Cc1ccc(CN2CCC(NC(=O)c3ccc(C(=O)Nc4cccc(Cc5ccccc5)c4)cn3)CC2)cc1 [Compound 5, N^2-(1-(4-cyanobenzyl)piperidin-4-yl)-N^5-(3-benzylphenyl)pyridine-2,5-dicarboxamide]
8 | < 500 | O=C(NC1CCN(Cc2ccc(F)cc2)CC1)c1ccc(C(=O)N2CC[C@H](Oc3ccc(F)cc3)C2)cn1 [Compound 182, (S)-N-(1-(4-fluorobenzyl)piperidin-4-yl)-5-(3-(4-fluorophenoxy)pyrrolidine-1-carbonyl)picolinamide]
9 | < 500 | COc1ccc(C(=O)C2CCN(C(=O)c3ccc(C(=O)N[C@@H]4CCN(Cc5ccc(C#N)cc5)C[C@H]4F)cn3)CC2)cc1 [Compound 452, N-((3R,4R)-1-(4-cyanobenzyl)-3-fluoropiperidin-4-yl)-6-(4-(4-methoxybenzoyl)piperidine-1-carbonyl)nicotinamide]
10 | < 500 | O=C(NC1CCN(Cc2cc(F)cc(F)c2)CC1)c1ccc(C(=O)N2CC(OCc3ccc(F)cc3)C2)cn1 [Compound 308, N-(1-(3,5-difluorobenzyl)piperidin-4-yl)-5-(3-(4-fluorobenzyloxy)azetidine-1-carbonyl)picolinamide]
11 | 500 to 1000 | N#Cc1cccc(-c2ccc(NC(=O)c3ccc(C(=O)N4CCN(Cc5ccc(F)cc5)CC4)cn3)cc2)c1 [Compound 32, N-(4-(3-cyanophenyl)phenyl)-5-(4-(4-fluorobenzyl)piperazine-1-carbonyl)picolinamide]
12 | 1000 to 5000 | COc1ccc(CN2CCC(NC(=O)c3ccc(C(=O)N4CCC(Oc5cccc(NC(C)=O)c5)CC4)nc3)CC2)cc1 [Compound 412, 6-(4-(3-acetamidophenoxy)piperidine-1-carbonyl)-N-(1-(4-methoxybenzyl)piperidin-4-yl)nicotinamide]
13 | 1000 to 5000 | N#Cc1ccc(CN2CCC(NC(=O)c3ccc(N4CCN(Cc5ccc(F)cc5)CC4)nn3)CC2)cc1 [Compound 491, N-(1-(4-cyanobenzyl)piperidin-4-yl)-6-(4-(4-fluorobenzyl)piperazin-1-yl)pyridazine-3-carboxamide]
14 | < 500 | CN1CCN(c2ccc(C(=O)C3CCN(C(=O)c4ccc(C(=O)NC5CCN(Cc6ccc(C#N)cc6)CC5)cn4)CC3)cc2)CC1 [Compound 243, N-(1-(4-cyanobenzyl)piperidin-4-yl)-6-(4-(4-(4-methylpiperazin-1-yl)benzoyl)piperidine-1-carbonyl)nicotinamide]
15 | < 500 | CN(C)c1ccc(OC2CCN(C(=O)c3ccc(C(=O)NC4CCN(Cc5ccc(C#N)cc5)CC4)cn3)CC2)cc1 [Compound 370, N-(1-(4-cyanobenzyl)piperidin-4-yl)-6-(4-(4-(dimethylamino)phenoxy)piperidine-1-carbonyl)nicotinamide]
16 | < 500 | CC(C)S(=O)(=O)c1ccc(N2CCN(C(=O)c3ccc(C(=O)NC4CCN(Cc5ccc(C#N)cc5)CC4)nc3)CC2)cc1 [Compound 251, N-(1-(4-cyanobenzyl)piperidin-4-yl)-5-(4-(4-(isopropylsulfonyl)phenyl)piperazine-1-carbonyl)picolinamide]

More lines, now with the values behind:

Row | SMILES | EC50 [nM]
17 | N#Cc1ccc(CN2CCC3(CC2)CCN(c2ccc(C(=O)N4CCN(Cc5ccc(F)cc5)CC4)cn2)C3)cc1 [Compound 31, 4-((2-(5-(4-(4-fluorobenzyl)piperazine-1-carbonyl)pyridin-2-yl)-2,8-diazaspiro[4.5]decan-8-yl)methyl)benzonitrile] | < 500
18 | N#Cc1ccc(OC2CCN(C(=O)c3ccc(C(=O)N[C@H]4CC[C@@H](Oc5ccc(C(F)(F)F)cc5)CC4)nc3)CC2)cc1 [Compound 193, 5-(4-(4-cyanophenoxy)piperidine-1-carbonyl)-N-((cis)-4-(4-(trifluoromethyl)phenoxy)cyclohexyl) picolinamide] | < 500
19 | O=C(NC1CCN(Cc2cc(F)cc(F)c2)CC1)c1ccc(C(=O)N2CC[C@H](Oc3ccc(F)cc3)C2)cn1 [Compound 292, N-(1-(3,5-difluorobenzyl)piperidin-4-yl)-5-((S)-3-(4-fluorophenoxy)pyrrolidine-1-carbonyl)picolinamide] | < 500
20 | CS(=O)(=O)c1ccc(OC2CCN(C(=O)c3ccc(C(=O)NC4CCN(Cc5cc(F)cc(F)c5)CC4)nc3)CC2)cc1 [Compound 203, N-(1-(3,5-difluorobenzyl)piperidin-4-yl)-5-(4-(4-(methylsulfonyl)phenoxy)piperidine-1-carbonyl)picolinamide] | < 500
21 | COc1ccc(CN2CCC(NC(=O)c3ccc(C(=O)N4CCC(C(=O)c5ccc(N6CCCC6)cc5)CC4)nc3)CC2)cc1F [Compound 443, N-(1-(3-fluoro-4-methoxybenzyl)piperidin-4-yl)-6-(4-(4-(pyrrolidin-1-yl)benzoyl)piperidine-1-carbonyl)nicotinamide] | < 500
22 | CS(=O)(=O)c1ccc(N2CCC(NC(=O)c3ccc(C(=O)N4CCC(Oc5ccc(C#N)cc5)CC4)nc3)CC2)cc1 [Compound 420, 6-(4-(4-cyanophenoxy)piperidine-1-carbonyl)-N-(1-(4-(methylsulfonyl)phenyl)piperidin-4-yl)nicotinamide] | 1000 to 5000
23 | CC(=O)c1ccc(Oc2ccc(NC(=O)c3ccc(C(=O)N4CCN(Cc5ccc(F)cc5)CC4)nc3)cn2)cc1 [Compound 477, N-(6-(4-acetylphenoxy)pyridin-3-yl)-6-(4-(4-fluorobenzyl)piperazine-1-carbonyl)nicotinamide] | < 500
24 | O=C(c1cccc(C(=O)N2CCN(Cc3ccc(F)cc3)CC2)n1)N1CCN(CCc2ccccc2)CC1 [Compound 93, (4-(4-fluorobenzyl)piperazin-1-yl)(6-(4-phenethylpiperazine-1-carbonyl)pyridin-2-yl)methanone] | > 10000
25 | COc1ccc(CN2CCC(N(C)C(=O)c3ccc(C(=O)N4CCC(C(=O)c5ccc(OC)cc5)CC4)nc3)CC2)cc1 [Compound 484, 6-(4-(4-methoxybenzoyl)piperidine-1-carbonyl)-N-(1-(4-methoxybenzyl)piperidin-4-yl)-N-methylnicotinamide] | < 500
26 | COc1ccc(C(=O)C2CCN(C(=O)c3ccc(C(=O)N[C@H]4CC[C@@H](Oc5ccc(F)cc5)CC4)cn3)CC2)cc1 [Compound 316, N-((cis)-4-(4-fluorophenoxy)cyclohexyl)-6-(4-(4-methoxybenzoyl)piperidine-1-carbonyl)nicotinamide] | < 500
27 | CC(=O)c1ccc(Oc2ccc(NC(=O)c3ccc(C(=O)N4CCN(c5ccc(S(=O)(=O)C(C)C)cc5)CC4)nc3)cn2)cc1 [Compound 489, N-(6-(4-acetylphenoxy)pyridin-3-yl)-6-(4-(4-(isopropylsulfonyl)phenyl)piperazine-1-carbonyl)nicotinamide] | < 500
28 | N#Cc1ccc(OC2CCN(C(=O)c3ccc(C(=O)NC4CCN(c5ccc(C#N)cc5)CC4)cn3)CC2)cc1 [Compound 418, 6-(4-(4-cyanophenoxy)piperidine-1-carbonyl)-N-(1-(4-cyanophenyl)piperidin-4-yl)nicotinamide] | < 500
29 | CC(=O)c1ccc(OC2CCN(C(=O)c3ccc(C(=O)NC4CCC(Oc5ccc(C#N)cc5)CC4)cn3)CC2)cc1 (centres unmarked) [Compound 402, 6-(4-(4-acetylphenoxy)piperidine-1-carbonyl)-N-(4-(4-cyanophenoxy)cyclohexyl)nicotinamide] | < 500
30 | O=C(NC1CCN(Cc2ccc(N3CCCC3)cc2)CC1)c1ccc(C(=O)N2CCC(C(=O)c3ccc(N4CCCC4)cc3)CC2)nc1 [Compound 444, 6-(4-(4-(pyrrolidin-1-yl)benzoyl)piperidine-1-carbonyl)-N-(1-(4-(pyrrolidin-1-yl)benzyl)piperidin-4-yl)nicotinamide] | < 500
31 | O=C(N[C@@H]1CCN(Cc2ccncc2)C[C@@H]1F)c1ccc(C(=O)N2CCN(Cc3ccc(F)cc3)CC2)cn1 (relative stereo) [Compound 104, N-(cis-3-fluoro-1-(pyridin-4-ylmethyl)piperidin-4-yl)-5-(4-(4-fluorobenzyl)piperazine-1-carbonyl)picolinamide] | < 500
32 | COc1ccc(C(=O)C2CCN(C(=O)c3ccc(C(=O)N[C@H]4CC[C@@H](Oc5ccc(F)cc5)CC4)nc3)CC2)cc1 [Compound 311, N-((cis)-4-(4-fluorophenoxy)cyclohexyl)-5-(4-(4-methoxybenzoyl)piperidine-1-carbonyl)picolinamide] | < 500
